Reference: US20240109912A1, “TRICYCLIC PYRIMIDINES AS CYCLIN-DEPENDENT KINASE 7 (CDK7) INHIBITORS” (JANSSEN PHARMACEUTICA NV, priority 2020, published 2024)
Where “and” joins values, the source holds several entries; their conditions need not be identical. Equal values may be shown once. Read-outs that look alike come from different tables or passages of the source.

Tests used:
[1] = molecular target: CDK7/cyclinH/MAT1 trimeric complex (Homo sapiens (Human), UniProt P50613); assay: In vitro CDK7 assay, potency of irreversible covalent inhibitors (kinact/KI)
Sequence of CDK7/cyclinH/MAT1 trimeric complex (P50613 whole entry): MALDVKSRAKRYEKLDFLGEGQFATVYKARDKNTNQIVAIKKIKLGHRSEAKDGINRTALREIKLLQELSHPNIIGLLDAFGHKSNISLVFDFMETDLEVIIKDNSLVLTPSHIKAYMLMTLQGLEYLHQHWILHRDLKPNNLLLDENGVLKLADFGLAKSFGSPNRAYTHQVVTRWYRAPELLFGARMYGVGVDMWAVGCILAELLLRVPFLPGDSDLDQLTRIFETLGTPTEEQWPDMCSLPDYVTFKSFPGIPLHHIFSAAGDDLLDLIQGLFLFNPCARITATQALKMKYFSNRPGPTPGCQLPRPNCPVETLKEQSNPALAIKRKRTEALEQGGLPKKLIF
Sequence of CDK7/cyclinH/MAT1 trimeric complex (P51946 whole entry partner): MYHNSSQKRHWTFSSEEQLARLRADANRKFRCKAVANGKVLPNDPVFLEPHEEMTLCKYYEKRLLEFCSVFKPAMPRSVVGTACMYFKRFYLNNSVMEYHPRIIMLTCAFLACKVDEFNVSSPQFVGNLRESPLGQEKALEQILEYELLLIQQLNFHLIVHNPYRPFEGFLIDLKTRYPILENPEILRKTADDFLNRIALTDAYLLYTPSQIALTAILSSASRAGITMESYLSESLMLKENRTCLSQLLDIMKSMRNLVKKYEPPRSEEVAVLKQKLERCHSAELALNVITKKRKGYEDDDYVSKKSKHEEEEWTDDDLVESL
Sequence of CDK7/cyclinH/MAT1 trimeric complex (P51948 whole entry partner): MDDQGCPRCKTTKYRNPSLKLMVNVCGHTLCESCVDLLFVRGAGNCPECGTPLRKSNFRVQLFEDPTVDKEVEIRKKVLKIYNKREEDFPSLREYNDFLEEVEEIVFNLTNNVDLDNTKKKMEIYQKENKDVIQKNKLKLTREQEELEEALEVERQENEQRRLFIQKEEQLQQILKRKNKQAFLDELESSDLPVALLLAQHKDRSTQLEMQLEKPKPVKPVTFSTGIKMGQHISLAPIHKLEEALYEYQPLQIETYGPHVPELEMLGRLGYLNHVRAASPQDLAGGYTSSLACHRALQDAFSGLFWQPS

[2] = system: RNA polymerase II Serine 5 phosphorylation (CDK7) in A549 cells
[3] = system: RNA polymerase II Serine 5 phosphorylation in A549 cells overexpressing CDK7 mutant (C312S); assay: Imaging-based cellular RNA PolII Ser5 phosphorylation assay in A549 cells overexpressing CDK7-mutant (C312S); assay type: cell-based, human; conditions: for IC50: Homo sapiens, A549, A549 cells overexpressing CDK7 mutant (C312S), read-out: CDK7_ A549 mutant hCDK7(pIC50) (converted)
Method: Data were calculated and analyzed in Phaedra.
From this an IC50 value can be obtained.
In parallel this assay was performed in A549 cells overexpressing CDK7-mutant (C312S) to evaluate the effect of the covalent bond on potency and to screen for potential off-target effects. Mutation of Cysteine to Serine (C312S), a less nucleophilic amino acid, prevents CDK7 inhibitors from covalently binding to CDK7 and from inhibiting CDK7 activity in an irreversible manner. A stably transduced A549 cell pool was generated that overexpresses CDK7 mutant (C312S), but also expresses endogenous CDK7-WT. Covalent binders targeting the cysteine at position 312 will show a shift in potency in A549 cells overexpressing mutant C312S CDK7.

[4] = CDK7 (20 nM enz.) (KI, μM), 20 nM enz.
[5] = read-out: CDK7 (20 nM enz.) (kinact, s^−1), 20 nM enz.
[6] = read-out: CDK7 (20 nM enz.) (kinact/ KI, M^−1*s^−1), 20 nM enz.
[7] = read-out: CDK7 (kinact, s^−1), Table B
[8] = read-out: CDK7 (kinact/KI, M^−1*s^−1), Table B

Structure (SMILES) | CDK7 (20 nM enz.) (kinact, s^−1) ([1]; 20 nM enz.) | CDK7 (20 nM enz.) (kinact/ KI, M^−1*s^−1) ([1]; 20 nM enz.) | Ki [1, 4] | kinact [1, 5] | kinact/KI [1, 6] | IC50 [2] | IC50 [3] | Ki ([1]; CDK7 (KI(μM)), Table B) | kinact [1, 7] | kinact/KI [1, 8] | CDK7_ A549 mutant hCDK7(pIC50) ([3]; A549 cells overexpressing CDK7 mutant (C312S)) | kinact/KI ([1]; read-out: CDK7 (20 nM enz.) (kobs/[I], M^−1*s^−1), 20 nM enz.)
C=CC(=O)NCCN1CCC(c2ccc3c(c2)Nc2ncnc(N4CCOCC4)c2CO3)CC1 [compound 3] |  |  |  |  |  | 912 nM | > 10000 nM | 1.03 µM | 0.000166 s⁻¹ | 161 M⁻¹ s⁻¹ |  | 
C=CC(=O)N1CC[C@H](N2CCC(c3ccc4c(c3)Nc3ncnc(N5CCOCC5)c3CO4)CC2)C1 [compound 5] |  |  |  |  |  | 891 nM | ~8910 nM | 0.595 µM | 0.000243 s⁻¹ | 408 M⁻¹ s⁻¹ |  | 
C=CC(=O)N1CC(N2CCN(c3ccc4c(c3)Nc3ncnc(N5CCOCC5)c3CO4)CC2)C1 [compound 6] |  |  |  |  |  | 3800 nM | > 10000 nM | 2.73 µM | 0.000504 s⁻¹ | 185 M⁻¹ s⁻¹ |  | 
C=CC(=O)N1CC(N2CCC(c3ccc4c(c3)Nc3ncnc(-c5ccc(=O)n(C)c5)c3CO4)CC2)C1 [compound 8] |  |  |  |  |  | 5500 nM | > 10000 nM | 0.251 µM | 0.000188 s⁻¹ | 749 M⁻¹ s⁻¹ |  | 
C=CC(=O)N1CC(N2CC[C@@H](c3ccc4c(c3)Nc3ncnc(N5CCOCC5)c3CO4)C2)C1 [compound 10] |  |  |  |  |  | 1820 nM | > 10000 nM | 0.38 µM | 0.000155 s⁻¹ | 409 M⁻¹ s⁻¹ |  | 
C=CC(=O)N1CCC(N2CCC(c3cc(C)c4c(c3)Nc3ncnc(N5CCOCC5)c3CO4)CC2)C1 (stereo not drawn) [compound 11] |  |  | 0.0411 µM | 3.59e-05 s⁻¹ | 874 M⁻¹ s⁻¹ | 288 nM | 8910 nM |  |  |  |  | 
C=CC(=O)N1CC[C@H](N2CCC(c3cc(C)c4c(c3)Nc3ncnc(N5CCOCC5)c3CO4)CC2)C1 [compound 12] | 0.0001275 s⁻¹ | 256.184 M⁻¹ s⁻¹ | 0.191 µM and 0.498 µM | 7.04e-05 s⁻¹ | 368 M⁻¹ s⁻¹ | 457 nM and 282 nM | > 10000 nM |  |  |  |  | 
C=CC(=O)N1CC[C@@H](N2CCC(c3cc(C)c4c(c3)Nc3ncnc(N5CCOCC5)c3CO4)CC2)C1 [compound 13] | 8.3e-05 s⁻¹ |  | 0.0781 µM and 0.315 µM | 5.64e-05 s⁻¹ |  | 275 nM and 234 nM | > 10000 nM |  |  |  |  | 
C=CC(=O)N1CCC(N2CCC(c3ccc4c(c3)Nc3ncnc(N5CCOCC5)c3CO4)CC2)C(F)C1 (stereo not drawn) [compound 15] |  |  | 0.632 µM | 5.72e-05 s⁻¹ | 90.5 M⁻¹ s⁻¹ | 955 nM | > 10000 nM |  |  |  |  | 
C=CC(=O)N1CC[C@@H](N2CC(c3cc(C)c4c(c3)Nc3ncnc(N5CCOCC5)c3CO4)C2)C1 [compound 17] |  |  | 0.716 µM | 6.7e-05 s⁻¹ | 93.7 M⁻¹ s⁻¹ | 380 nM | > 10000 nM |  |  |  |  | 
C=CC(=O)N1CC[C@H](N2CC(c3cc(C)c4c(c3)Nc3ncnc(N5CCOCC5)c3CO4)C2)C1 [compound 18] |  |  | 0.529 µM | 8.2e-05 s⁻¹ | 155 M⁻¹ s⁻¹ | 380 nM | > 10000 nM |  |  |  |  | 
C=CC(=O)N1CCC(N2CC(c3cc(Cl)c4c(c3)Nc3ncnc(C5CCOCC5)c3CO4)C2)CC1 [compound 19] |  |  | 0.542 µM | 8.14e-05 s⁻¹ | 150 M⁻¹ s⁻¹ | 871 nM | > 10000 nM |  |  |  |  | 
C=CC(=O)N1CC(N2CCC(c3cc(F)c4c(c3)Nc3ncnc(N5CCOCC5)c3CO4)CC2)C1 [compound 20] |  |  | 0.0693 µM | 4.85e-05 s⁻¹ | 699 M⁻¹ s⁻¹ | 646 nM | > 10000 nM |  |  |  |  | 
C=CC(=O)N1CC(N2CCC(c3cc(F)c4c(c3)Nc3ncnc(-c5cnn(C)c5)c3CO4)CC2)C1 [compound 21] |  |  | 0.408 µM | 5.42e-05 s⁻¹ | 133 M⁻¹ s⁻¹ | 832 nM | > 10000 nM |  |  |  |  | 
C=CC(=O)N1CC(N2CC[C@@H](c3cc(C)c4c(c3)Nc3ncnc(N5CCOCC5)c3CO4)C2)C1 [compound 22] |  |  | 0.208 µM | 6.38e-05 s⁻¹ | 307 M⁻¹ s⁻¹ | ~617 nM | > 10000 nM |  |  |  |  | 
C=CC(=O)N1CC(N2CC[C@H](c3cc(C)c4c(c3)Nc3ncnc(N5CCOCC5)c3CO4)C2)C1 [compound 23] |  |  | 0.255 µM | 5.86e-05 s⁻¹ | 230 M⁻¹ s⁻¹ | 603 nM | > 10000 nM |  |  |  |  | 
C=CC(=O)N1CCC(N2CC[C@H](c3cc(C)c4c(c3)Nc3ncnc(N5CCOCC5)c3CO4)C2)CC1 [compound 24] |  |  | 0.533 µM | 4.78e-05 s⁻¹ | 89.6 M⁻¹ s⁻¹ | 646 nM | > 10000 nM |  |  |  |  | 
C=CC(=O)N1CCC(N2CC[C@@H](c3cc(C)c4c(c3)Nc3ncnc(N5CCOCC5)c3CO4)C2)CC1 [compound 25] |  |  | 1.22 µM | 6.34e-05 s⁻¹ | 52.1 M⁻¹ s⁻¹ | 741 nM | > 10000 nM |  |  |  |  | 
C=CC(=O)N1CCC(N2CC(c3cc(F)c4c(c3)Nc3ncnc(N5CCOCC5)c3[C@H](C)O4)C2)CC1 [compound 26] |  |  | 0.336 µM | 4.84e-05 s⁻¹ | 203 M⁻¹ s⁻¹ | 288 nM | > 10000 nM |  |  |  |  | 
C=CC(=O)N1CCC(N2CC(c3cc(F)c4c(c3)Nc3ncnc(N5CCOCC5)c3[C@@H](C)O4)C2)CC1 [compound 27] |  |  | 5.21 µM | 4.89e-05 s⁻¹ | 9.39 M⁻¹ s⁻¹ | 4790 nM | > 10000 nM |  |  |  |  | 
C=CC(=O)N1CCC(N2CC(c3cc(C)c4c(c3)Nc3ncnc(N5CCOCC5)c3CO4)C2)C(F)C1 (stereo not drawn) [compound 28] |  |  | 0.686 µM | 8.88e-05 s⁻¹ | 129 M⁻¹ s⁻¹ | 759 nM | > 10000 nM |  |  |  |  | 
C=CC(=O)N1CCC(N2CC(c3cc(C)c4c(c3)Nc3ncnc(N5CCOCC5)c3CO4)C2)C(F)C1 (stereo not drawn) [compound 29] | 7.3e-05 s⁻¹ | 93.6387 M⁻¹ s⁻¹ | 0.78 µM |  |  | 1120 nM |  |  |  |  | <5 | 

Other lines, results leading:

CDK7 (20 nM enz.) (kinact, s^−1) ([1]; 20 nM enz.) | CDK7 (20 nM enz.) (kinact/ KI, M^−1*s^−1) ([1]; 20 nM enz.) | Ki [1, 4] | kinact [1, 5] | kinact/KI [1, 6] | IC50 [2] | IC50 [3] | Ki ([1]; CDK7 (KI(μM)), Table B) | kinact [1, 7] | kinact/KI [1, 8] | CDK7_ A549 mutant hCDK7(pIC50) ([3]; A549 cells overexpressing CDK7 mutant (C312S)) | kinact/KI ([1]; read-out: CDK7 (20 nM enz.) (kobs/[I], M^−1*s^−1), 20 nM enz.) | Structure (SMILES)
4.7e-05 s⁻¹ | 261.659 M⁻¹ s⁻¹ | 0.283 µM and 0.18 µM | 6.55e-05 s⁻¹ | 231 M⁻¹ s⁻¹ | 316 nM and 457 nM | > 10000 nM |  |  |  |  |  | CC#CC(=O)N1CC(N2CCC(c3cc(C)c4c(c3)Nc3ncnc(N5CCS(=O)(=O)CC5)c3[C@H](C)O4)CC2)C1 (single isomer, unassigned) [compound 150]
 |  | 0.0806 µM | 8.1e-05 s⁻¹ | 879 M⁻¹ s⁻¹ | 195 nM and 200 nM | > 10000 nM |  |  |  |  |  | C#Cc1cc(C2CCN(C3CN(C(=O)C=C)C3)CC2)cc2c1O[C@H](C)c1c(ncnc1N1CCS(=O)(=O)CC1)N2 (single isomer, unassigned) [compound 189]
 |  | 0.175 µM | 5.79e-05 s⁻¹ | 330 M⁻¹ s⁻¹ | 1510 nM | > 10000 nM |  |  |  |  |  | C=CC(=O)N1CC(N2CC[C@@H](c3cc4c(c(C)n3)OCc3c(ncnc3N3CCS(=O)(=O)CC3)N4)C2)C1 [compound 30]
 |  | 0.226 µM | 5.87e-05 s⁻¹ | 260 M⁻¹ s⁻¹ | 2750 nM | > 10000 nM |  |  |  |  |  | C=CC(=O)N1CC(N2CC[C@H](c3cc4c(c(C)n3)OCc3c(ncnc3N3CCS(=O)(=O)CC3)N4)C2)C1 [compound 31]
 |  |  |  |  | 1150 nM | > 10000 nM | 0.251 µM | 9.7e-05 s⁻¹ | 386 M⁻¹ s⁻¹ |  |  | C=CC(=O)N1CC(N2CCC(c3ccc4c(c3)Nc3ncnc(C5CCOCC5)c3CO4)CC2)C1 [compound 38]
 |  | 0.175 µM | 7.35e-05 s⁻¹ | 420 M⁻¹ s⁻¹ | 245 nM | > 10000 nM |  |  |  |  |  | C=CC(=O)N1CC(N2CCC(c3cc4c(c(C5CC5)c3)OCc3c(ncnc3N3CCOCC3)N4)CC2)C1 [compound 47]
 |  | 4.12 µM | 0.0001 s⁻¹ | 24.3 M⁻¹ s⁻¹ | 6460 nM | > 10000 nM |  |  |  |  |  | C=CC(=O)N1CC(N2CCC(c3cc(C)c4c(c3)Nc3ncnc(N5CCC(S(C)(=O)=O)C5)c3CO4)CC2)C1 (stereo not drawn) [compound 65]
 |  | 1.2 µM | 0.000103 s⁻¹ | 85.8 M⁻¹ s⁻¹ | 1320 nM | > 10000 nM |  |  |  |  |  | C=CC(=O)N1CC(N2CCC(c3cc(C)c4c(c3)Nc3ncnc(N5CCCC(C#N)C5)c3CO4)CC2)C1 (stereo not drawn) [compound 67]
 |  | 1.1 µM | 6.3e-05 s⁻¹ | 57.2 M⁻¹ s⁻¹ | 1580 nM | > 10000 nM |  |  |  |  |  | C=CC(=O)N1CC(N2CCC(c3cc(C)c4c(c3)Nc3ncnc(N5CCC(C#N)CC5)c3CO4)CC2)C1 [compound 69]
 |  |  |  |  | 138 nM | 832 nM |  |  |  |  | 1090 M⁻¹ s⁻¹ | C=CC(=O)N1CC(N2CCC(c3cc(C)c4c(c3)Nc3ncnc(N5CCS(=N)(=O)CC5)c3CO4)CC2)C1 [compound 72]
 |  | 1.24 µM | 3.75e-05 s⁻¹ | 30.2 M⁻¹ s⁻¹ | 1660 nM | > 10000 nM |  |  |  |  |  | C=CC(=O)N1CCC(N2CC(c3cc(C#N)c4c(c3)Nc3ncnc(-c5cnn(C)c5)c3CO4)C2)CC1 [compound 73]
 |  | 0.132 µM | 5.42e-05 s⁻¹ | 412 M⁻¹ s⁻¹ | 1170 nM | > 10000 nM |  |  |  |  |  | C=CC(=O)N1CC(N2CCC(c3cc(C#N)c4c(c3)Nc3ncnc(-c5cnn(C)c5)c3CO4)CC2)C1 [compound 74]
 |  | 0.32 µM | 4.18e-05 s⁻¹ | 131 M⁻¹ s⁻¹ | 219 nM | > 10000 nM |  |  |  |  |  | C=CC(=O)N1CC(N2CCC(c3cc(C)c4c(c3)Nc3ncnc(-c5ccnn5C)c3CO4)CC2)C1 [compound 80]
